The target in data set [1] is T1, Phosphodiesterase 4 (Homo sapiens, UniProt P27815+Q08499+Q07343+Q08493). Put plainly: Inhibition of PDE4 in U937 cells at 10 uM. The class given is cell-based. The conditions noted are these: U-937.
In data set [2] the target is Muscarinic acetylcholine receptor M3 (Homo sapiens, UniProt P20309). Put plainly: Displacement of [3H]N-methylscopolamine from human recombinant M3 muscarinic receptor expressed in CHO cell membrane. The format is cell membranes.
Data set [3] can be described thus: Dissociation constant, pKa of the compound. The format is physicochemical.
Data set [4] deals with T1, Phosphodiesterase 4. Briefly: Inhibition of PDE4 in U937 cells. The format is cell-based. The conditions noted are these: u-937.
Data set [5] in a line: Inhibition of fMLP-induced elastase release from human PMN cells. The class given is functional, cell-based.
The next data set is filed under the species Cavia porcellus. The note with it: Trachea.
The target of data set [6] is T1, Phosphodiesterase 4. Briefly: Inhibition of PDE4 in U937 cells at high-affinity rolipram binding state. The class given is cell-based. The note with it: u-937.
The species named for data set [7] is Mus musculus. Put plainly: Inhibition of mKC cells in BALB/c mouse at 10 mg/ml, nose-only aerosol for 15 mins. The class given is functional, organism-based.
The species named for data set [8] is Mus musculus. Put plainly: Inhibition of BALF cells in BALB/c mouse at 10 mg/ml, nose-only aerosol for 15 mins. The class given is functional, organism-based.
For data set [9], the species on record is Mus musculus. Briefly: Inhibition of PMN cells in BALB/c mouse at 10 mg/ml, nose-only aerosol for 15 mins. The class given is functional, organism-based.
For data set [10], the target named is Muscarinic acetylcholine receptor M3 (Cavia porcellus, UniProt Q8VH26). Put plainly: Activity at M3 muscarinic receptor in guinea pig assessed as effect on carbachol-induced trachea contraction.
Muscarinic acetylcholine receptor M3 (Cavia porcellus, UniProt Q8VH26), sequence (Q8VH26 whole entry): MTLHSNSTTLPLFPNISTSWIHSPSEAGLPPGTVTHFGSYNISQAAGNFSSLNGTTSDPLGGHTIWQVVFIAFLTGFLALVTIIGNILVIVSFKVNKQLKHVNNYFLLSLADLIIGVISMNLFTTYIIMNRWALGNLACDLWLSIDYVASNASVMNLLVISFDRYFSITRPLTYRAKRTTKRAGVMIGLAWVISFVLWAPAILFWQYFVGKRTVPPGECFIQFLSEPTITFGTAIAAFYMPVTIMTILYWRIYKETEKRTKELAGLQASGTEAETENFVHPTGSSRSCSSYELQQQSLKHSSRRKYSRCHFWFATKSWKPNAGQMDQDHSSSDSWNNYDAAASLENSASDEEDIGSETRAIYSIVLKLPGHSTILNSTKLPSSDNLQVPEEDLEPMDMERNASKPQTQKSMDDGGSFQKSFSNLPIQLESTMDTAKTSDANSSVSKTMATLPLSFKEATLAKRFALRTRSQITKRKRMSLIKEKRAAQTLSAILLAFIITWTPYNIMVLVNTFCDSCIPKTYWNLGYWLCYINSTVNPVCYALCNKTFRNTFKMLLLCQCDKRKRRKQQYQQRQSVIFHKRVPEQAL

The Ki is the equilibrium dissociation constant of an inhibitor or competing ligand from its target. The term pKa denotes the pH at which an ionisable group is half protonated. A high value points to a weaker acid or stronger base. As a reminder, the IC50 is the point on the concentration scale where inhibition reaches its midpoint. A higher IC50 goes with weaker potency.

The source made the active and inactive calls. The calls are words filed in the database; no cut-off is given here.

Muscarinic acetylcholine receptor M3 (Homo sapiens, UniProt P20309), sequence (P20309 whole entry): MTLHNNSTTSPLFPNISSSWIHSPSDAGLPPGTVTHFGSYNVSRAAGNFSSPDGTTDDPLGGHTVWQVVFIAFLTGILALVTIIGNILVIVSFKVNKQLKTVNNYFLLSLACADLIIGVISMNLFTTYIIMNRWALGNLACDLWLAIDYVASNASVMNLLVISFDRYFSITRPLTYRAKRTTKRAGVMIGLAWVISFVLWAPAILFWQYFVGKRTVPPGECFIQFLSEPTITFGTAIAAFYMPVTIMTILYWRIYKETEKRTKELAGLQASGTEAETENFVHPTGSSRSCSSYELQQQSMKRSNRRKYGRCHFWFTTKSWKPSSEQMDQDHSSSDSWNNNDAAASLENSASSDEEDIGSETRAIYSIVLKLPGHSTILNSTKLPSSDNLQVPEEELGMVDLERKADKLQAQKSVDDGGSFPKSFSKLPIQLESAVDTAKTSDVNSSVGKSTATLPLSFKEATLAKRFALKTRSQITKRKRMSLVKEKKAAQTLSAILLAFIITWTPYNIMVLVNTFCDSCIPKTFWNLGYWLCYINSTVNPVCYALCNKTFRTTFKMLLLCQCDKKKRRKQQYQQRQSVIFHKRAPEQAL
Description for Cavia porcellus: Activity at PDE4 in guinea pig assessed as effect on LTD4-induced trachea contraction

For the compound `Cc1c(N2CCCCCC2)nc(C2CC2)nc1N1CCCCCC1`, the result at Phosphodiesterase 4 [1] was inactive. The Ki in data set [2] came to 40 nM.
In data set [3], `Cc1c(N2CCCCCC2)nc(C2CC2)nc1N1CC(=O)C1` yielded a pKa of 6.4. Further, the Ki in data set [2] is 631 nM. The IC50 against Phosphodiesterase 4 [4] was 500 nM.
`Cc1c(N2CCCCCC2)nc(C2CC2)nc1N1CC(C)(C)C1` showed a pKa in data set [3] of 7. Further, in data set [2], the Ki was found to be 32 nM. In addition, the IC50 against Phosphodiesterase 4 [4] came out at 5000 nM.
On to `COC1CN(c2nc(C3CC3)nc(N3CCCCCC3)c2C)C1`, for which, in data set [3], the pKa stood at 6.8. The Ki in data set [2] turned out to be 40 nM. Further, on Phosphodiesterase 4 [4], the IC50 is 4000 nM.
For the compound `Cc1c(N2CCCCCC2)nc(C2CC2)nc1N1CC(F)C1`, the concentration for half-maximal inhibition (IC50) in [5] was 380 nM; on Phosphodiesterase 4 [4], 79 nM. The compound also registered a pD2 in the data set filed under Cavia porcellus of 7.4. Moreover, the “Log Ki” value on Phosphodiesterase 4 [6] was -6. The same compound yielded a pKa in data set [3] of 6.6. The inhibition constant (Ki) in data set [2] was 200 nM. The “Log IC50” value at Phosphodiesterase 4 [4] was -7.3.
Turning to `Cc1c(NC2CC2)nc(C2CC2)nc1N1CCCCCC1`, the Activity result in the data set filed under Mus musculus [7], in the data set listed under Mus musculus [8] and in the data set filed under Mus musculus [9] was “Dose-dependent effect” throughout. Also, the pD2 in the data set listed under Cavia porcellus is 6.1.
In turn, `Cc1c(N2CCCCCC2)nc(C2CC2)nc1N1CCC1` displayed an IC50 in data set [5] of 190 nM. In addition, the Kb in data set [10] was 1000 nM. Besides, the “Log Ki” value at Phosphodiesterase 4 [6] is -5.3. The compound also showed a pKa in [3] of 7.1. Further, the inhibitory constant (Ki) in data set [2] was determined as 16 nM. In addition, on Phosphodiesterase 4 [4], the IC50 is 320 nM and the “Log IC50” value is -6.6.
As for `Cc1c(N2CCCCCC2)nc(C2CC2)nc1N1CC(C)C1`, the pKa in data set [3] was 8. Besides, the inhibition constant (Ki) in data set [2] came out at 20 nM. The IC50 on Phosphodiesterase 4 [4] came to 790 nM.
`CC1CN(c2cc(N3CCCCCC3)nc(C3CC3)n2)C1` showed a pKa in data set [3] of 7.5. In [2], the inhibition constant Ki stood at 13 nM. Besides, the IC50 against Phosphodiesterase 4 [4] is 2000 nM.
In turn, `FC1CN(c2cc(N3CCCCCC3)nc(C3CC3)n2)C1` yielded a pKa in [3] of 6.9. Besides, the inhibitory constant (Ki) in data set [2] was found to be 501 nM. Also, at Phosphodiesterase 4 [4], the 50% inhibitory concentration (IC50) was 200 nM.
On to `Cc1c(N2CCCCCC2)nc(C2CC2)nc1N1CC(O)C1`, for which the pKa in data set [3] came out at 7. The Ki in [2] amounted to 158 nM. At Phosphodiesterase 4 [4], this compound came in with a concentration for half-maximal inhibition (IC50) of 630 nM.
For `Cc1c(N2CCCCCC2)nc(C2CC2)nc1N1CC(C#N)C1`, the pKa in [3] came out at 6.4. Further, in data set [2], the inhibition constant Ki amounted to 794 nM. On Phosphodiesterase 4 [4], the IC50 stood at 1000 nM.
For `Cc1c(N2CCCCCC2)nc(C2CC2)nc1N1CCCCC1`, the result at Phosphodiesterase 4 [1] was inactive. The inhibition constant Ki in [2] came to 79 nM.
Consider `c1c(N2CCCCCC2)nc(C2CC2)nc1N1CCC1`, for which the pKa in [3] stood at 7.4. In addition, the inhibition constant Ki in data set [2] came to 79 nM. The compound further returned an IC50 against Phosphodiesterase 4 [4] of 790 nM.
As to `Cc1c(N2CCCCCC2)nc(C2CC2)nc1N1CCCC1`, in data set [2], the inhibitory constant (Ki) was determined as 1.3 nM. The IC50 against Phosphodiesterase 4 [4] was 3200 nM.

The record behind these values is ChEMBL document CHEMBL1147942, “Dual M3 antagonists-PDE4 inhibitors. Part 2: Synthesis and SAR of 3-substituted azetidinyl derivatives” (Bioorg Med Chem Lett, 2007).
